In patent US7425568B2, “Compounds, which are potent inhibitors of Na+ /Ca2+ exchange mechanism and are useful in the treatment of arrhythmias” (Orion Corporation, priority 2001, dated 2008):

Test system: ouabain-induced arrhythmias in guinea-pig papillary muscles
Test: Inhibition of ouabain-induced arrhythmias (aftercontractions) in isolated guinea-pig papillary muscles
Settings: for maximum amplitude of aftercontractions #1: n=5, vehicle 143±54 mg
Description: The effects of the compounds of the invention were tested on ouabain-induced arrhythmias in guinea-pig papillary muscles.
Guinea-pig papillary muscles were mounted into horizontal muscle cuvette. A hook connected to force transducer was attached to another end of the muscle. Muscle preparations were electrically paced at 1 Hz with field stimulation via platinum electrodes. Modified Tyrode solution was used for superfusion of muscle preparations. The composition of the Tyrode solution was the following (mM): NaCl 135, MgCl2×6H2O 1, KCl 5, CaCl2×2H2O 2, NaHCO3 15, Na2HPO4×2H2O 1, and glucose 10. The Tyrode solution was gassed with carbogen (95% O2, 5% CO2) to set pH at 7.4. Experiments were carried out at 37° C. Acquisition and analysis of twitch tensions with Action Potential and Force Measurement System (ACFO v1.0, Fision Ltd, Finland).
Ouabain by blocking of sodium-potassium ATPase increase intracellular sodium which is changed for calcium via NCX. Increased intracellular calcium is leading to overload of sarcoplasmic reticulum (SR) and spontaneous calcium release from SR inducing delayed […] (DADs). Equivalence for DADs in force signal is aftercontractions (ACs) which are seen as spontaneous twitches after the pacing controlled twitch.
The compounds of the invention delayed appearance and decreased amplitude of aftercontractions.

SMILES | appearance of aftercontractions (time to appearance) (30 μM, mean±SD, n=5, vehicle 25±8.9 min, p=0.013, paced at 1 Hz, 37° C) | maximum amplitude of aftercontractions #1 (30 μM, p=0.008) | maximum amplitude of aftercontractions #1 (10 μM, p=0.027)
CC(=O)Nc1ccc(Oc2ccc3c(c2)CCC(c2ccccc2)O3)nc1 (stereo not drawn) [Example 27] | 38 ± 7.5 min | 74 ± 16 mg | 
CS(=O)(=O)Nc1ccc(Oc2ccc3c(c2)CCC(c2cccc(F)c2)O3)nc1 (stereo not drawn) [Example 67, N-{6-[2-(3-Fluorophenyl)chroman-6-yloxy]pyridin-3-yl}methane Sulfonamide] |  |  | 88 ± 20 mg
